This is an account of results in patent US8618119B2, “Fused cyanopyridines and the use thereof” (Bayer Intellectual Property GmbH, priority 2007, dated 2013).

Holding throughout (type): cell-based
In one assay the target is T1, adenosine A2b receptor (Homo sapiens, UniProt P29275).
T1 construct: expressed in transfected cells; host or cells: CHO (Chinese Hamster Ovary)
T1 sequence (P29275 1-332): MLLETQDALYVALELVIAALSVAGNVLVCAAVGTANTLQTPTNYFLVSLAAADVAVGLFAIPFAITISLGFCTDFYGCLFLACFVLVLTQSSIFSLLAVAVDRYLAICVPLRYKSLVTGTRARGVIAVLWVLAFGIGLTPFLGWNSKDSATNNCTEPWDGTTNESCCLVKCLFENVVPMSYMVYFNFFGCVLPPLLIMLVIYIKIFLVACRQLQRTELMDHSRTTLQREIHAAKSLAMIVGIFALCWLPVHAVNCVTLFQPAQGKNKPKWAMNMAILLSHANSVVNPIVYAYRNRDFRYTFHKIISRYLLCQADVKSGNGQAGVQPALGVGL
Description: Indirect determination of adenosine agonism by way of gene expression (luciferase reporter), A2b cells. The settings on record: CHO cells stably transfected with A2b receptor cDNA; 50% of maximum stimulation. The source says:
(§1) B-1. Indirect Determination of the Adenosine Agonism by Way of Gene Expression
(§2) Cells of the CHO (Chinese Hamster Ovary) permanent line are transfected stably with the cDNA for the adenosine receptor subtypes A1, A2a and A2b. The adenosine A1 receptors are coupled to the adenylate cyclase by way of Gi proteins, while the adenosine A2a and A2b receptors are coupled by way of Gs proteins. In correspondence with this, the formation of cAMP in the cell is inhibited or stimulated, respectively. After that, expression of the luciferase is modulated by way of a cAMP-dependent promoter. The luciferase test is optimized, with the aim of high sensitivity and reproducibility, low variance and good suitability for implementation on a robot system, by varying several test parameters, such as cell density, duration of the growth phase and the test incubation, forskolin concentration and medium composition. The following test protocol is used for pharmacologically characterizing cells and for the robot-assisted substance screening:
(§3) The stock cultures are grown, at 37° C. and under 5% CO2, in DMEM/F12 medium containing 10% FCS (fetal calf serum) and in each case split 1:10 after 2-3 days. The test cultures are seeded in 384-well plates with 2000 cells per well and grown at 37° C. for approx. 48 hours. The medium is then replaced with a physiological sodium chloride solution (130 mM sodium chloride, 5 mM potassium chloride, 2 mM calcium chloride, 20 mM HEPES, 1 mM magnesium chloride hexahydrate, 5 mM sodium bicarbonate, pH 7.4). The substances to be tested, which are dissolved in DMSO, are pipetted into the test cultures (maximum final concentration of DMSO in the test mixture: 0.5%) in a dilution series of from 5×10^−11M to 3×10^−6M (final concentration). 10 minutes later, forskolin is added to the A1 cells and all the cultures are subsequently incubated at 37° C. for four hours. After that, 35 μl of a solution which is composed of 50% lysis reagent (30 mM disodium hydrogenphosphate, 10% glycerol, 3% TritonX100, 25 mM TrisHCl, 2 mM dithiotreitol (DTT), pH 7.8) and 50% luciferase substrate solution (2.5 mM ATP, 0.5 mM luciferin, 0.1 mM coenzyme A, 10 mM tricine, 1.35 mM magnesium sulfate, 15 mM DTT, pH 7.8) are added to the test cultures, which are shaken for approx. 1 minute and the luciferase activity is measured using a camera system. The EC50 values are determined, i.e., the concentrations at which 50% of the luciferase answer is inhibited in the case of the A1 cell, and, respectively, 50% of the maximum stimulation with the corresponding substance is achieved in the case of the A2b and A2a cells. […] Pharmacol., 357 (1998), 1-9).
(§4) Table 1 below lists the EC50 values of representative working examples for the receptor stimulation on adenosine A1, A2a and A2b receptor subtypes: […]
On the technique in general: A reporter such as luciferase makes a cellular process visible.

The target of another assay is T2, adenosine A1 receptor (Homo sapiens, UniProt P30542).
T2 construct: expressed in transfected cells; host or cells: CHO (Chinese Hamster Ovary)
T2 sequence (P30542 1-326): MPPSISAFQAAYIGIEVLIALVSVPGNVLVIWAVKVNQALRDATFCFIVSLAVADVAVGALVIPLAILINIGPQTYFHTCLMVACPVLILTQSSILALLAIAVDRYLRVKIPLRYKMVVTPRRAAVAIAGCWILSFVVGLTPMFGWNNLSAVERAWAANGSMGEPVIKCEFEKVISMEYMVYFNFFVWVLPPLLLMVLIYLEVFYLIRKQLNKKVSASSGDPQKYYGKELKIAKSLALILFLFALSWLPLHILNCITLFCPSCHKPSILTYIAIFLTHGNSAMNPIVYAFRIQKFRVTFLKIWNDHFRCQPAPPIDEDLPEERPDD
Briefly: Indirect determination of adenosine agonism by way of gene expression (luciferase reporter), A1 cells. The note with it: CHO cells stably transfected with A1 receptor cDNA; 1 μM forskolin; 50% inhibition of luciferase answer.
Source text: as §1, §2, §3, §4

A further assay deals with T3, adenosine A2a receptor (Homo sapiens, UniProt P29274).
T3 construct: expressed in transfected cells; host or cells: CHO (Chinese Hamster Ovary)
Description: Indirect determination of adenosine agonism by way of gene expression (luciferase reporter), A2a cells. The settings on record: CHO cells stably transfected with A2a receptor cDNA; 50% of maximum stimulation.
Source text: as §1, §2, §3, §4

T3 sequence (P29274 whole entry): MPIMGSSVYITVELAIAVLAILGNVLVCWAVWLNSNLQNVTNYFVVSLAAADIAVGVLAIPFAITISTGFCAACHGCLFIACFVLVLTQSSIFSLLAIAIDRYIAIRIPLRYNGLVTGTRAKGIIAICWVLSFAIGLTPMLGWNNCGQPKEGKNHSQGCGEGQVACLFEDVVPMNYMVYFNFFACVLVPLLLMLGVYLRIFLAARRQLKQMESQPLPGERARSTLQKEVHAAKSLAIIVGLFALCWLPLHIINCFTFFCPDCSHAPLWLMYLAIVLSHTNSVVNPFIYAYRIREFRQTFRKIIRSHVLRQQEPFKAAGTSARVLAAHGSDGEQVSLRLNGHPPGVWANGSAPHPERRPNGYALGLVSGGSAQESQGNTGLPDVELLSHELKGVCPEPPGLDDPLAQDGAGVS

A word on the EC50: it is the midpoint of the concentration-response curve. Consider `N#Cc1c(SCc2csc(-c3ccc(Cl)cc3)n2)nc2c(c1-c1ccc(OCCO)cc1)C(=O)CCC2` [Example 2, 2-({[2-(4-Chlorophenyl)-1,3-thiazol-4-yl]methyl}thio)-4-[4-(2-hydroxyethoxy)phenyl]-5-oxo-5,6,7,8-tetrahydroquinoline-3-carbonitrile], for which the values for the half-maximal effective concentration (EC50) at adenosine A2b receptor, on adenosine A1 receptor and on adenosine A2a receptor were 207 nM, 7.9 nM and above 3000 nM, respectively.
Turning to `N#Cc1c(SCc2csc(-c3ccc(Cl)cc3)n2)nc2c(c1-c1ccc(OC[C@@H](O)CO)cc1)C(=O)CCC2` [Example 3, 2-({[2-(4-Chlorophenyl)-1,3-thiazol-4-yl]methyl}thio)-4-(4-{[(2S)-2,3-dihydroxypropyl]oxy}-phenyl)-5-oxo-5,6,7,8-tetrahydroquinoline-3-carbonitrile], the values for the concentration for a half-maximal effect (EC50) at adenosine A2b receptor, on adenosine A1 receptor and at adenosine A2a receptor were 66 nM, 2.6 nM and above 3000 nM, respectively.
Taken in the same sequence, the figures for `Cc1nc(N)c2c(-c3ccc(OCCO)cc3)c(C#N)c(SCc3csc(-c4ccc(Cl)cc4)n3)nc2n1` [Example 9, 4-Amino-7-({[2-(4-chlorophenyl)-1,3-thiazol-4-yl]methyl}sulfanyl)-5-[4-(2-hydroxyethoxy)phenyl]-2-methylpyrido[2,3-d]pyrimidine-6-carbonitrile] were 38 nM, below 0.04 nM and 68 nM.
Taken in the same sequence, the figures for `Cc1nc2nc(SCc3csc(-c4ccc(Cl)cc4)n3)c(C#N)c(-c3ccc(OCCO)cc3)c2c(=O)[nH]1` [Example 10, 7-({[2-(4-Chlorophenyl)-1,3-thiazol-4-yl]methyl}thio)-5-[4-(2-hydroxyethoxy)phenyl]-2-methyl-4-oxo-3,4-dihydropyrido[2,3-d]pyrimidine-6-carbonitrile] were 213 nM, 0.4 nM and 1370 nM.
With `N#Cc1c(SCc2csc(-c3ccc(Cl)cc3)n2)nc2[nH]c(=O)[nH]c(=O)c2c1-c1ccc(OCCO)cc1` [Example 12, 7-({[2-(4-Chlorophenyl)-1,3-thiazol-4-yl]methyl}sulfanyl)-5-[4-(2-hydroxyethoxy)phenyl]-2,4-dioxo-1,2,3,4-tetrahydropyrido[2,3-d]pyrimidine-6-carbonitrile], the half-maximal effective concentration (EC50) on adenosine A2b receptor stood at 880 nM; at adenosine A1 receptor, 2 nM; on adenosine A2a receptor it was 2000 nM.
For the molecule `COC(=O)c1ccc(-c2nc(CSc3nc4c(c(-c5ccccc5)c3C#N)CCC4)cs2)cc1` [Example 13, Methyl 4-(4-{[(3-cyano-4-phenyl-6,7-dihydro-5H-cyclopenta[b]pyridin-2-yl)sulfanyl]methyl}-1,3-thiazol-2-yl)benzoate], the EC50 came to 1250 nM on adenosine A2b receptor and 21 nM on adenosine A1 receptor.
